{
  "source": "patent US20120130078A1",
  "about": "“INDAZOLE DERIVATIVES AS ADENOSINE MONOPHOSPHATE DEAMINASE (AMPD) INHIBITORS FOR USE IN DIABETES AND RELATED DISEASES OF METABOLIC SYNDROME” (priority 2010, published 2012)",
  "key": {"[1]": {"tested_on": "L6 cells", "test": "Glucose uptake assay (2-deoxyglucose uptake) in L6 cells", "format": "cell-based", "conditions": "FIG. 1, 4, 10", "protocol": "Glucose uptake was determined as the rate of 2-deoxy-D-[2,6-^3H]glucose uptake, using modification of a previous method (15). The cells were first incubated for 15 min with Krebs-Henseleit Bicarbonate buffer (KHB), glucose, and other agents as indicated. At this point, the labeled deoxyglucose (0.6 μCi) was added to each well and the incubation continued for 45 min. The media was aspirated, and the wells were washed three times with ice-cold KHB to remove exogenous label. The cells were lysed by the addition of 0.1% Triton-X100 (1 mL). Samples of each well were mixed with aqueous scintillation fluid and measured by liquid scintillation counting."}, "[2]": {"tested_on": "L6 cells", "test": "Palmitate (fatty acid) oxidation assay in L6 cells", "format": "cell-based", "conditions": "FIG. 2, 3, 11", "protocol": "Palmitate oxidation was determined by a modification of quantitative measuring the rate of ^14CO2 production from ^14C-labeled palmitic acid as described previously (24). The KHB for these incubations was supplemented with fatty-acid poor albumin, dialyzed against the same buffer (three changes). The final albumin concentration was 1%. After an initial 10 min of incubation, all samples received 2 mM carnitine and [1-^14C]-palmitic acid (1 μCi/mole), and other additions as noted, and incubations continued to the end of 3 h. Aliquots of 0.8 mL were taken from each well to an eppendorf tube. […] 200 μL of 3 M perchloric acid was carefully added to the 0.8 mL to ensure no acid was deposited on the side of the tube, and the lid was quickly closed. The tubes were incubated overnight to allow the [^14C] CO2 to be absorbed into the wick. The caps were removed with scissors and placed in 10 mL of liquid scintillation fluid for counting."}, "[3]": {"tested_on": "L6 cells", "test": "Ammonia assay, ammonia formation by intact cells", "format": "cell-based", "conditions": "FIG. 7, 12", "protocol": "Ammonia was measured as described by Kun et al. (19). Briefly, after two hours incubation with or without 10 mM metformin, 0.5 mL of samples were added into cuvette and mixed with assay reagents (100 mM Tris buffer, 10 mM α-ketoglutaric acid, 0.24 mM NADH in 1 mL). Absorbance was measured at 340 nm with spectro-photometer (Hitachi, U-2000). 20 μL of glutamate dehydrogenase (200 μg/mL) was added into cuvette and mixed, and absorbance was measured again after 1 hour at 340 nm."}, "[4]": {"tested_on": "AMP deaminase (AMPD)", "test": "AMP deaminase enzymatic assay (in vitro)", "format": "biochemical", "conditions": "for AMPD inhibition, comparison of three synthesized compounds: FIG. 9", "protocol": "AMP deaminase activity was measured as described by Ashby and Frieden (4). Standard assay monitored the absorbance change at 285 nm as a result of AMP conversion to IMP in a reaction volume of 2 mL containing 50 mM imidazole-HCl (pH 7.0), 2 mM AMP and 150 mM KCl. One unit of enzyme activity is defined as the amount of protein required to produce 1 μmol IMP per min at 25° C. under standard conditions."}, "[5]": {"tested_on": "L6 muscle cell line", "test": "Lactate formation in L6 muscle cell line", "format": "cell-based"}, "[6]": {"tested_on": "L6 muscle cell line", "test": "Glycogen synthesis in L6 muscle cell line", "format": "cell-based"}, "[7]": {"tested_on": "AMPK", "test": "Phosphorylation of AMPK", "format": "cell-based"}, "[8]": {"tested_on": "acetyl CoA carboxylase", "test": "Phosphorylation of acetyl CoA carboxylase", "format": "cell-based"}, "[9]": {"tested_on": "cells with adenylate kinase knockout", "test": "Metformin action in cells with adenylate kinase knockout (siRNA)", "format": "cell-based", "conditions": "adenylate kinase knockout using siRNA; FIG. 5"}},
  "data": [
    {"smiles": "[NH-]c1c[n+](N2CCOCC2)no1", "note": "[SIN-1]", "values": [
      {"measurement": "glucose transport / glucose uptake", "setting": "[1]", "result": "stimulation of glucose transport"},
      {"measurement": "palmitate / fatty acid oxidation", "setting": "[2]", "result": "inhibits fatty acid oxidation"}
    ]},
    {"smiles": "NC(=O)c1n[nH]c2ccccc12", "note": "[SKTT-1, 1H-indazole-3-carboxamide]", "values": [
      {"measurement": "ammonia formation", "setting": "[3]", "result": "suppressed ammonia formation"},
      {"measurement": "glucose transport / glucose uptake", "setting": "[1]", "result": "stimulated glucose uptake"},
      {"measurement": "palmitate / fatty acid oxidation", "setting": "[2]", "result": "replicated the metformin stimulation of fatty acid oxidation"},
      {"measurement": "AMPD inhibition curves, potency compared with metformin", "setting": "[4]; FIG. 8, compared with metformin", "result": "more potent"},
      {"measurement": "AMPD inhibition, comparison of three synthesized compounds", "setting": "[4]", "result": "similar"}
    ]},
    {"smiles": "COC(=O)c1n[nH]c2ccccc12", "note": "[SKTT-2, methyl 1H-indazole-3-carboxylate]", "values": [
      {"measurement": "ammonia formation", "setting": "[3]", "result": "suppressed ammonia formation"},
      {"measurement": "glucose transport / glucose uptake", "setting": "[1]", "result": "stimulated glucose uptake"},
      {"measurement": "palmitate / fatty acid oxidation", "setting": "[2]", "result": "replicated the metformin stimulation of fatty acid oxidation"},
      {"measurement": "AMPD inhibition, comparison of three synthesized compounds", "setting": "[4]", "result": "similar"}
    ]},
    {"smiles": "COC(=O)c1cccc2[nH]ncc12", "note": "[SKTT-12, methyl 1H-indazole-4-carboxylate]", "values": [
      {"measurement": "AMPD inhibition, comparison of three synthesized compounds", "setting": "[4]", "result": "somewhat less effective"}
    ]},
    {"smiles": "CN(C)C(=N)N=C(N)N", "note": "[metformin]", "values": [
      {"measurement": "lactate formation", "setting": "[5]", "result": "stimulation"},
      {"measurement": "ammonia formation", "setting": "[3]", "result": "decrease in ammonia formation"},
      {"measurement": "glycogen synthesis", "setting": "[6]", "result": "inhibition of glycogen synthesis"},
      {"measurement": "glucose transport / glucose uptake", "setting": "[1]", "result": "stimulation of glucose transport"},
      {"measurement": "phosphorylation of the AMPK", "setting": "[7]", "result": "direct phosphorylation of the AMPK"},
      {"measurement": "palmitate / fatty acid oxidation", "setting": "[2]", "result": "stimulation"},
      {"measurement": "phosphorylation of acetyl CoA carboxylase", "setting": "[8]", "result": "phosphorylation"},
      {"measurement": "effect of adenylate kinase deletion on metformin action", "setting": "[9]", "result": "no effect"},
      {"measurement": "AMPD activity measured in vitro", "setting": "[4]; FIG. 6", "result": "inhibited AMPD activity"}
    ]},
    {"smiles": "C=C(C)[C@H]1Cc2c(ccc3c2O[C@@H]2COc4cc(OC)c(OC)cc4[C@@H]2C3=O)O1", "note": "[rotenone]", "values": [
      {"measurement": "glucose transport / glucose uptake", "setting": "[1]", "result": "does increase glucose uptake"},
      {"measurement": "palmitate / fatty acid oxidation", "setting": "[2]", "result": "leads only to inhibition of fatty acid oxidation"}
    ]}
  ]
}
